Experimental data as given in patent publication US20230075765A1, “PYRROLO[2,3-D]PYRIMIDINE DERIVATIVE TARGETING EGFR MUTATION, AS WELL AS THE PREPARATIVE METHOD AND THE USE THEREOF” (WEST CHINA HOSPITAL, SICHUAN UNIVERSITY, priority 2020, published 2023).

How the values were obtained:
Format in all cases: cell-based, human
[1] = system: ERK1/2; assay: Western blot, inhibition of ERK1/2 phosphorylation
Procedure: (§1) (1) Various cell lines in the logarithmic growth phase were evenly inoculated in a 6-well plate at a concentration of 3×10^6 cells/well, respectively, and cultured for 24 h;
(§2) (2) The culture supernatant was removed, and then the cells were washed twice with PBS, and treated with serum-free medium for 1 hour;
(§3) (3) The culture supernatant was removed, and each compound at different concentrations was added, then the cells were treated for 2 h;
(§4) (4) The supernatant was removed, and the cells were washed twice with pre-cooled PBS, then the supernatant was discarded;
(§5) (5) 100 μl of cell lysate was added to each well, and cells were lysed on ice for 10 min. The cells were scraped with a cell scraper. The cell lysate was transferred to a pre-cooled 1.5 ml EP tube, sonicated, and centrifuged under 12000 rpm at 4° C. for 10 min. The supernatant was carefully aspirated and stored at −20° C.
(§6) (6) To the aliquoted total cell protein, was added 5 μl of 5× loading buffer, and the protein was denatured in a water bath at 100° C. for 10 min, then the sample was centrifugated and loaded;
(§7) (1) The successfully transferred membrane was placed in the 1× blocking solution prepared, and kept in the blocking solution at room temperature for about 1 h;
(§8) (2) EGFR protein and its downstream proteins were diluted with 1× primary antibody diluent, and incubated overnight at 4° C., using […] antibody as an internal reference;
(§9) (3) The membrane was washed 3 times with 1×TBST, 5 min for each time, and then washed with 1× secondary antibody dilution, followed by incubation for 1 h at room temperature. Finally, the membrane was washed 3 times with 1×TBST, 15 min for each time.
(§10) (2) The mixed ECL reagent was added to PVDF membrane (1 ml/10 cm^2), and subjected to chemiluminescence to obtain a band;
(§11) Western Blot method was used to analyze the influence of each compound on the expression of pathway proteins.

[2] = system: Akt; assay: Western blot, inhibition of Akt phosphorylation
Procedure: as §1, §2, §3, §4, §5, §6, §7, §8, §9, §10, §11

[3] = system: EGFR-Tyr992; assay: Western blot, inhibition of EGFR phosphorylation; conditions: H1975 cells
Procedure: as §1, §2, §3, §4, §5, §6
(1) The successfully transferred membrane was placed in the 1× blocking solution prepared, and kept in the blocking solution at room temperature for about 1 h; […]

[4] = system: HCC827 cells; assay: Apoptosis, Annexin V-FITC/PI double staining, flow cytometry; conditions: for Total apoptosis rate (%): 18 h (control 10.8)
Procedure: (§12) Apoptosis was detected by Annexin V-FITC/PI double staining method. A variety of different cells in the logarithmic growth phase were inoculated evenly in a 6-well plate at a concentration of 1×10^6 cells/well, 2 ml for each well, and then incubated overnight. Then, different compounds were added, and each compound was set different concentrations. After 18 h, the cells were collected with 0.25% trypsin without EDTA and washed twice with PBS solution. Then, the cells were stained by the apoptosis detection kit according to the instructions, and analyzed by flow cytometry.
(§13) In the experiment, human lung cancer cells HCC827 cells and H1975 cells were selected as the detection system. The control group was a blank control (DMSO). The test concentrations of the compounds were 0.5 μM and 5 μM. After treatment with the compounds for 18 h, the flow cytometry was used for detection. In the apoptosis result graph, the cells in quadrant E1 are necrotic cells, the cells in quadrant E2 are late apoptotic cells, the cells in quadrant E3 area represent live cells, and the cells in quadrant E4 are early apoptotic cells.

[5] = system: H1975 cells; assay: as above; conditions: for Total apoptosis rate (%): 18 h (control 9.2)
Procedure: as §12, §13

[6] = system: HCC827 cells; assay: Cell cycle, PI staining, flow cytometry; conditions: for G2/M phase (%): 18 h (control 24.99); for S phase (%): 18 h (control 33.66); for G0/G1 phase (%): 18 h (control 41.35)
Procedure: (§14) A variety of different cells in the logarithmic growth phase were inoculated evenly in a 6-well plate at a concentration of 1×10^6 cells/well, 2 ml for each well, and then incubated overnight. Then, different compounds were added, and each compound was set different concentrations. After 18 h, the cells were collected, resuspended in PBS, and centrifuged to remove the supernatant, to which was then added 0.5 ml of pre-cooled 75% absolute ethanol dropwise, followed by vortexing to mix the cells and standing overnight at 4° C. The solution was centrifuged at 1000 rpm/min for 4 min, and the supernatant was discarded. Propidium iodide staining solution was prepared by using 5.6 ml staining buffer, 210 μl propidium iodide staining solution (25×), and 56 μl RNaseA (2.5 mg/ml). 0.4 ml of propidium iodide staining solution was added to each tube to resuspend the cells, and then incubated for 30 min at room temperature in the dark. The cell suspension was gently pipetted to mix, filtered into a flow tube, and stored in the dark at 4° C. The cells were detected on the flow cytometer within 1 h.

[7] = system: H1975 cells; assay: Cell cycle, PI staining, flow cytometry; conditions: for G2/M phase (%): 18 h (control 14.52); for S phase (%): 18 h (control 30.25); for G0/G1 phase (%): 18 h (control 55.23)
Procedure: as §14

Row | Compound | inhibition of phosphorylation of ERK1/2 ([1]; H1975 cells) | inhibition of phosphorylation of ERK1/2 ([1]; wild-type EGFR cells) | inhibition of phosphorylation of Akt ([2]; H1975 cells) | inhibition of phosphorylation of Akt ([2]; wild-type EGFR cells) | inhibition of phosphorylation of EGFR-Tyr992 [3] | apoptosis-inducing effect (in words) [4] | Total apoptosis rate (%) ([4]; 0.5 μM) | Total apoptosis rate (%) ([4]; 5 μM) | apoptosis-inducing effect (in words) [5] | Total apoptosis rate (%) ([5]; 0.5 μM) | Total apoptosis rate (%) ([5]; 5 μM) | ratio of cells in the G0/G1 phase compared with the control group (in words) [6] | G2/M phase (%) ([6]; 0.5 μM) | S phase (%) ([6]; 0.5 μM) | G0/G1 phase (%) ([6]; 0.5 μM) | G2/M phase (%) ([6]; 5 μM) | S phase (%) ([6]; 5 μM) | G0/G1 phase (%) ([6]; 5 μM) | ratio of cells in the G0/G1 phase compared with the control group (in words) [7] | G2/M phase (%) ([7]; 0.5 μM) | also measured
1 | C=CC(=O)Nc1cccc(Oc2nc(Nc3ccc(N4CCN(C)CC4)c([N+](=O)[O-])c3)nc3[nH]ccc23)c1 [Compound 5] | inhibited | much weaker inhibitory effects | inhibited | much weaker inhibitory effects | effectively inhibited | certain apoptosis-inducing effects | 30.3 | 23.8 | certain apoptosis-inducing effects | 12.7 | 13.5 | significantly higher | 9.72 | 16.99 | 73.29 | 14.12 | 4.36 | 81.52 | significantly higher | 9.17 | S phase (%) ([7]; 0.5 μM): 4.64%; G0/G1 phase (%) ([7]; 0.5 μM): 86.20%; G2/M phase (%) ([7]; 5 μM): 11.64%; S phase (%) ([7]; 5 μM): 14.04%; G0/G1 phase (%) ([7]; 5 μM): 74.33%
2 | C=CC(=O)Nc1cccc(Oc2nc(Nc3ccc(N4CCN(C)CC4)c(N)c3)nc3[nH]ccc23)c1 [Compound 6] | inhibited | much weaker inhibitory effects | inhibited | much weaker inhibitory effects | effectively inhibited | certain apoptosis-inducing effects | 28.7 | 23.6 | certain apoptosis-inducing effects | 16.4 | 16.1 | significantly higher | 10.27 | 11.62 | 78.11 | 7.95 | 13.93 | 78.12 | significantly higher | 10.49 | S phase (%) ([7]; 0.5 μM): 5.28%; G0/G1 phase (%) ([7]; 0.5 μM): 84.24%; G2/M phase (%) ([7]; 5 μM): 13.18%; S phase (%) ([7]; 5 μM): 10.59%; G0/G1 phase (%) ([7]; 5 μM): 76.23%
